Data on one compound can be found in BindingDB's records for doi:10.1021/jm800792b (Industrial Research, 2008).

The target of assay [1] is T1, Purine nucleoside phosphorylase (Homo sapiens, UniProt P00491).
T1 sequence (P00491 whole entry): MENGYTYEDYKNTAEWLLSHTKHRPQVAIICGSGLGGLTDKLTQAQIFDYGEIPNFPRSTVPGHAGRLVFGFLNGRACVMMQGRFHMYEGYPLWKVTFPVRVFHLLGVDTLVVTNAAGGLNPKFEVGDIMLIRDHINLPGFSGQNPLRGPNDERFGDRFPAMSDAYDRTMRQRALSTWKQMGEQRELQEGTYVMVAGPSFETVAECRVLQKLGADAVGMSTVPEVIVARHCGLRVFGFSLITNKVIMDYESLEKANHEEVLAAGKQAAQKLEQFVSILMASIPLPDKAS
Kind of assay: Inhibition of human purine nucleoside phosphorylase by xanthine-oxidase coupled assay.

Assay [2] has as its target T1, Purine nucleoside phosphorylase. The assay can be described thus: Inhibition of human purine nucleoside phosphorylase assessed as slow onset inhibition constant by xanthine-oxidase coupled assay.

For orientation: Ki means the equilibrium dissociation constant of an inhibitor or competing ligand from its target. For the compound `O=c1[nH]cnc2c(CN3C[C@H](O)[C@@](F)(CO)C3)c[nH]c12` [Immucillins, 1], the Ki in assay [1] came to 0.066 nM; in assay [2] it was 0.5 nM.
